In US9617256B2 (priority 2007, dated 2017):
Converted amounts (≈) assume the structure as drawn.

Legend:
[1] = test system: APAE006 (strain of P. aeruginosa in which all efflux pumps are inactivated); test: microbe, parasite or virus in culture; type: cell-based; details: for MIC: Pseudomonas aeruginosa, read-out: MIC APAE006, P. aeruginosa, all efflux pumps inactivated
How it was run: (§1)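 CLSI broth microdilution in cation-adjusted Mueller-Hinton broth, final inoculum 3×10^5–7×10^5 CFU/mL, 2-fold drug dilutions, 18-24 hours at 35° C. in ambient air. APAE006 is an efflux-pump-inactivated P. aeruginosa strain. Assay performance monitored with QC strains and levofloxacin.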

[2] = test system: ASAU001 (laboratory strain of S. aureus, ATCC29213); test: MIC broth microdilution, ASAU001; type: cell-based; details: for MIC: Staphylococcus aureus, ATCC29213, read-out: MIC ASAU001
How it was run: (§2)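 MICs come from broth microdilution in cation-adjusted Mueller-Hinton broth, final inoculum 3×10^5–7×10^5 CFU/mL, 18-24 hours at 35° C. Levofloxacin and QC strains served as assay controls.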

AECO001 HSA AGP = test: MIC broth microdilution, AECO001 HSA AGP; type: cell-based, E. coli; details: for MIC: Escherichia coli
How it was run: as §2

[3] = test system: AECO063 (ATCC25922 bearing an acrAB mutation); test: microbe, parasite or virus in culture; type: cell-based, E. coli; details: for MIC: Escherichia coli, ATCC25922, read-out: MIC AECO063
How it was run: as §2

APAE001 (ATCC27853) = test: MIC broth microdilution, APAE001; type: cell-based, P. aeruginosa; details: for MIC: Pseudomonas aeruginosa, ATCC27853, read-out: MIC APAE001, APAE001 is ATCC27853
How it was run: as §2

[4] = test system: AABA1060 (clinical isolate of Acinetobacter baumannii); test: MIC broth microdilution, AABA1060; type: cell-based; details: for MIC: Acinetobacter baumannii, read-out: MIC AABA1060
How it was run: as §2

AECO001 (ATCC25922) = test: MIC broth microdilution, AECO001; type: cell-based, E. coli; details: for MIC: Escherichia coli, ATCC25922, read-out: MIC AECO001
How it was run: as §2

[5] = test system: APAE006 in the presence of 8 micrograms per milliliter of polymyxin B nonapeptide; type: cell-based, P. aeruginosa; details: in the presence of 8 micrograms per milliliter of polymyxin B nonapeptide
How it was run: as §1

Compound	MIC [1] [µg/mL]	MIC [2] [µg/mL]	MIC (AECO001 HSA AGP) [µg/mL]	MIC [3] [µg/mL]	MIC (APAE001 (ATCC27853)) [µg/mL]	MIC [4] [µg/mL]	MIC (AECO001 (ATCC25922)) [µg/mL]	MIC APAE006 + PMBN [5]	MIC APAE006 ([1]; P. aeruginosa, all efflux pumps inactivated)	MIC ASAU001 ([2]; S. aureus ATCC29213)	MIC AECO001 HSA AGP (AECO001 HSA AGP)	MIC AECO063 ([3]; ATCC25922 bearing an acrAB mutation)	MIC APAE001 (APAE001 (ATCC27853); APAE001 is ATCC27853)	MIC AABA1060 ([4]; clinical isolate of Acinetobacter baumannii)	MIC AECO001 (AECO001 (ATCC25922); AECO001 is ATCC25922)
C[C@@H](N)[C@H](NC(=O)c1ccc(C#CC#Cc2ccc(N)cc2)cc1)C(=O)NO [Example 82-16]	< 2	16 to 64 (≈ 42.5 to 170 µM)	2 to 16 (≈ 5.31 to 42.5 µM)	< 2	< 2	< 2	< 2	A (MIC's of 2.0 μg/mL or less = A)							
N-[1-((S)-Hydroxycarbamoyl)-2-methylamino-ethyl]-4-[(E)-4-(4-morpholin-4-ylmethyl-phenyl)-but-1-en-3-ynyl]-benzamide [Example 111-4]								A (MIC's of 2.0 μg/mL or less = A)	A (MIC's of 2.0 μg/mL or less = A)	D (MIC's of greater than 64.0 μg/mL = D)	C (MIC's of greater than 16.0 μg/mL to 64.0 μg/mL = C)	A (MIC's of 2.0 μg/mL or less = A)	B (MIC's of greater than 2.0 μg/mL to 16.0 μg/mL = B)	C (MIC's of greater than 16.0 μg/mL to 64.0 μg/mL = C)	A (MIC's of 2.0 μg/mL or less = A)
C[C@H](NCC(=O)NC[C@H](NC(=O)c1ccc(C#Cc2ccccc2)cc1)C(=O)NO)c1ccccc1 [Example 132-4]	< 2	16 to 64 (≈ 33 to 132 µM)	2 to 16 (≈ 4.13 to 33 µM)	< 2	2 to 16 (≈ 4.13 to 33 µM)	2 to 16 (≈ 4.13 to 33 µM)	< 2	A (MIC's of 2.0 μg/mL or less = A)							
C[C@H](O)[C@H](NC(=O)c1ccc(/C=C/C#Cc2ccc(CNC3CC3)cc2)cc1)C(=O)NO [Example 113-4]	< 2	> 64	2 to 16 (≈ 4.61 to 36.9 µM)	< 2	2 to 16 (≈ 4.61 to 36.9 µM)	2 to 16 (≈ 4.61 to 36.9 µM)	< 2	A (MIC's of 2.0 μg/mL or less = A)							
C[C@@H](N)[C@H](NC(=O)c1ccc(C#Cc2ccc(CN3CCOCC3)cc2)cc1)C(=O)O [Example 117-2, (2S,3R)-3-Amino-2-[4-(4-morpholin-4-ylmethyl-phenylethynyl)-benzoylamino]-butyric acid]	> 64	> 64	> 64	> 64	> 64	> 64	> 64	C (MIC's of greater than 16.0 μg/mL to 64.0 μg/mL = C)							
C[C@H](O)[C@H](NC(=O)c1ccc(/C=C/C#Cc2ccc(CN3CCOCC3)cc2)cc1)C(=O)NO [Example 110-5]	< 2	> 64	2 to 16 (≈ 4.31 to 34.5 µM)	< 2	2 to 16 (≈ 4.31 to 34.5 µM)	2 to 16 (≈ 4.31 to 34.5 µM)	< 2	A (MIC's of 2.0 μg/mL or less = A)							
CC(C)(N)C(NC(=O)c1ccc(C#Cc2ccc(CO)cc2)cc1)C(=O)NO (centres unmarked) [Example 137-5]	< 2	16 to 64 (≈ 41.9 to 168 µM)	2 to 16 (≈ 5.24 to 41.9 µM)	< 2	< 2	2 to 16 (≈ 5.24 to 41.9 µM)	< 2	A (MIC's of 2.0 μg/mL or less = A)							
CC(C)(O)[C@H](NC(=O)c1ccc(C#CC#Cc2ccc(CO)cc2)cc1)C(=O)NO [Example 82-15]	< 2	16 to 64 (≈ 39.4 to 157 µM)	16 to 64 (≈ 39.4 to 157 µM)	< 2	< 2	< 2	< 2	A (MIC's of 2.0 μg/mL or less = A)							
C[C@H](NCC(=O)NC[C@H](NC(=O)c1ccc(C#C/C=C/c2ccccc2)cc1)C(=O)NO)c1ccccc1 [Example 105-2, N—{(S)-1-Hydroxycarbamoyl-2-[2-((S)-1-phenyl-ethylamino)-acetylamino]-ethyl}-4-((E)-4-phenyl-but-3-en-1-ynyl)-benzamide]	< 2	16 to 64 (≈ 31.3 to 125 µM)	< 2	< 2	2 to 16 (≈ 3.92 to 31.3 µM)	16 to 64 (≈ 31.3 to 125 µM)	< 2	A (MIC's of 2.0 μg/mL or less = A)							
C[C@@H](O)[C@H](NC(=O)c1ccc(C#Cc2cccc(OC(F)(F)F)c2)cc1)C(=O)NO [Example 133-11]	2 to 16 (≈ 4.74 to 37.9 µM)	16 to 64 (≈ 37.9 to 152 µM)	16 to 64 (≈ 37.9 to 152 µM)	< 2	16 to 64 (≈ 37.9 to 152 µM)	16 to 64 (≈ 37.9 to 152 µM)	< 2	A (MIC's of 2.0 μg/mL or less = A)							
